Assay results as given in US6867009B2 (priority 1999, dated 2005).
Where “and” joins values, the source holds several entries; their conditions need not be identical. Equal values may be shown once. Read-outs that look alike come from different tables or passages of the source.

How the values were obtained:
rat VR1 [1] = molecular target: T1, rat VR1 (Rattus norvegicus, UniProt O35433); test: cell-based
T1 construct: expressed in transfected cells

human capsaicin receptor = molecular target: T2, human capsaicin receptor (Homo sapiens, UniProt Q8NER1, T469I); type: cell-based
T2 construct: expressed in transfected cells; host or cells: HEK 293T (transient, LIPOFECTAMINE; pBK-CMV phagemid clones PT35, PT44)
T2 sequence (Q8NER1 whole entry T469I): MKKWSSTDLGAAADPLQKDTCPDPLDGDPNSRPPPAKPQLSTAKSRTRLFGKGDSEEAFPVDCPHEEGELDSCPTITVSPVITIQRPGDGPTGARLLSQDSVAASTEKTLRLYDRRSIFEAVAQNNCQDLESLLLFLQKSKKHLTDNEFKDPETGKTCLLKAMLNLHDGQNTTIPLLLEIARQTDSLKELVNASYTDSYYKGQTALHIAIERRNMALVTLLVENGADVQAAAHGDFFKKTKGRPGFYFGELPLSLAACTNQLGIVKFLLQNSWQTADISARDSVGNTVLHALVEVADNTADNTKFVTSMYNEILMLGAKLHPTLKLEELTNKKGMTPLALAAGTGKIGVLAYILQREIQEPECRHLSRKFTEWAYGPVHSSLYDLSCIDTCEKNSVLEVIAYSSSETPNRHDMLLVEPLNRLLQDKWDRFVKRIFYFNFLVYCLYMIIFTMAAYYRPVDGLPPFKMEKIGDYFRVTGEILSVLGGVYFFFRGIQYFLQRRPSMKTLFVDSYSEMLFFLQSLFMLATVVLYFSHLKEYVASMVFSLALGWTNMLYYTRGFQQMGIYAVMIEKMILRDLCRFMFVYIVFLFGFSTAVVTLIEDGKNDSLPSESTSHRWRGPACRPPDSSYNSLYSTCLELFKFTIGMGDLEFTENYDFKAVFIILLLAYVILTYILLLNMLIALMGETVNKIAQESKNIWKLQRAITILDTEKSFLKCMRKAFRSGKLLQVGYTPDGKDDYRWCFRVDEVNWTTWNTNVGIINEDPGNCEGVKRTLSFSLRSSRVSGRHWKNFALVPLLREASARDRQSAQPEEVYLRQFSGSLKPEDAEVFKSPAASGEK

[2] = molecular target: T3, short form of human capsaicin receptor (Homo sapiens, UniProt Q8NER1, M315I/P91S/T469I); type: cell-based
T3 construct: expressed in transfected cells; host or cells: HEK 293T (transient, LIPOFECTAMINE; plasmid PT36)
T3 sequence (Q8NER1 with tags, fused parts or gaps P91S/M315I/T469I): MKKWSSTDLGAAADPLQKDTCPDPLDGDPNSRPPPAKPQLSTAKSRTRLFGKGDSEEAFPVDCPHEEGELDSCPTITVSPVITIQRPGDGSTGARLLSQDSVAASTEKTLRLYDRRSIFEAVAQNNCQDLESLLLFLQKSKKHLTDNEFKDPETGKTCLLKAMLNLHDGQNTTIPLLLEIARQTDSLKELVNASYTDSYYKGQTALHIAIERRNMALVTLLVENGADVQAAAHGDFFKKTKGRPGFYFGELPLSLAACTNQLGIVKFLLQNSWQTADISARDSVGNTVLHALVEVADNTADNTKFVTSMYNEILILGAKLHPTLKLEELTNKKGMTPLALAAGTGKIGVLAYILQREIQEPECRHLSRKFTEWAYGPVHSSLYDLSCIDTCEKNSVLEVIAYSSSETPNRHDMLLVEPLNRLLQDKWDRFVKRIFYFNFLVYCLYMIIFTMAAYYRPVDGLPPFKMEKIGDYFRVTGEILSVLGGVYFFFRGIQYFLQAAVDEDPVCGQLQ

HEK 293T cells = type: cell-based, human
[3] = system: rat dorsal root ganglion neurons; details: cited from earlier work
[4] = molecular target: T4, rat vanilloid-receptor-like protein 1 (VRL-1) (Rattus norvegicus, UniProt Q9WUD2); details: cited from earlier work
T4 sequence (Q9WUD2 1-761): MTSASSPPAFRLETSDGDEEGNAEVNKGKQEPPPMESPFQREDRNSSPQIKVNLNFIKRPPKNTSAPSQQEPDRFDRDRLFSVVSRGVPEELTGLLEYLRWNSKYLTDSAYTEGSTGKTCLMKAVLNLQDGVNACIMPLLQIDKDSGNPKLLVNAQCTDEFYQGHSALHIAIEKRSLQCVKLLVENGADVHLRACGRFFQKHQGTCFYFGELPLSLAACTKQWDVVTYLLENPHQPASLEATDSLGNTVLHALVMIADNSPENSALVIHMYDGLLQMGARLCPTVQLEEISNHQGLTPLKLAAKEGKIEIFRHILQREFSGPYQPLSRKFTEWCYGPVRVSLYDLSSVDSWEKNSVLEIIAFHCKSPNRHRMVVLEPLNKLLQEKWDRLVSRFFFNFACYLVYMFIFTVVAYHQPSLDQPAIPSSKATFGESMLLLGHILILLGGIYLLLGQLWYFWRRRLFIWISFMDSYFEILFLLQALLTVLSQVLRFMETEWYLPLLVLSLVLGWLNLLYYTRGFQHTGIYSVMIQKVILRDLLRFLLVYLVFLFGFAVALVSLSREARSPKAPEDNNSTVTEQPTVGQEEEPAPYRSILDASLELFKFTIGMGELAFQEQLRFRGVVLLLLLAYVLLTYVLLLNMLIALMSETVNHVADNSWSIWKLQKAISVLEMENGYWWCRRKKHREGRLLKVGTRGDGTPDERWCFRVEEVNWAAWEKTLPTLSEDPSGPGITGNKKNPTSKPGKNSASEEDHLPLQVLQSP

rat VR1 [5] = molecular target: T1, rat VR1; test: biochemical; type: binding
[6] = molecular target: T5, native rat vanilloid receptors (Rattus norvegicus, UniProt O35433); test: biochemical; type: binding
T5 construct: rat DRG membranes expressing native vanilloid receptors; from tissue; host or cells: dorsal root ganglia of female Sprague-Dawley rats, partially purified membrane fraction
T5 sequence (O35433 whole entry): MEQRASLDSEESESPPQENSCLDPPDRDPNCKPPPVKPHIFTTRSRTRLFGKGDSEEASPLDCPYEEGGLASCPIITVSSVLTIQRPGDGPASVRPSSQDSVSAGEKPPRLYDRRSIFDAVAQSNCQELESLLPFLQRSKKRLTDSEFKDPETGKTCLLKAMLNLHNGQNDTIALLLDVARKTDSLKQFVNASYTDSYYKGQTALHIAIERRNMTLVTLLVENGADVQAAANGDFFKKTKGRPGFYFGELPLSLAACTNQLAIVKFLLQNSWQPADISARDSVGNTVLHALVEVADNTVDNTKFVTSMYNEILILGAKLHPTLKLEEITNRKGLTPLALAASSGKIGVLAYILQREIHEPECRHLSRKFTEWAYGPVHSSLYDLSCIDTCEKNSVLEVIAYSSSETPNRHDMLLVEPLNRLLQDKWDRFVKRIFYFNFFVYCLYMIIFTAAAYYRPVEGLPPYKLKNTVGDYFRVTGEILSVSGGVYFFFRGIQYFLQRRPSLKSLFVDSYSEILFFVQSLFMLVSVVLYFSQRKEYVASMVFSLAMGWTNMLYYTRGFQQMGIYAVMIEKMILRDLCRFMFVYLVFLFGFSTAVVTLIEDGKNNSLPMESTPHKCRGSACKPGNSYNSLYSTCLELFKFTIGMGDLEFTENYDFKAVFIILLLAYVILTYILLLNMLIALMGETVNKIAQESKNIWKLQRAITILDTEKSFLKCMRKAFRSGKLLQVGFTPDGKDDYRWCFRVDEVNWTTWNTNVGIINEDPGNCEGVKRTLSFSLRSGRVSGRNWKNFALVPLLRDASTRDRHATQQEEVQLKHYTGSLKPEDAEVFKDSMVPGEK

rat VR1 [7] = molecular target: T1, rat VR1; test: biochemical; type: binding; remark: listed apart in the source
rat VR1 [8] = molecular target: T1, rat VR1; test: cell-based; remark: listed apart in the source
VR1 = molecular target: T6, VR1 (Rattus norvegicus, UniProt O35433); details: cited from earlier work
T6 construct: host or cells: Xenopus oocytes (A8); VR1-transfected HEK293 cells (A9)
T6 sequence (O35433 whole entry): as above

vanilloid receptor (VR) = molecular target: T7, vanilloid receptor (VR) (Rattus norvegicus, UniProt O35433); details: cited from earlier work
T7 construct: With regard to DRG neurons expressing native VRs this is clearly not the case; host or cells: intact rat dorsal root ganglion neurons
T7 sequence (O35433 whole entry): as above

[9] = read-out: 45Ca2+-uptake (EC50, nM), agonists
[10] = read-out: EC50 for inducing calcium uptake / influx
[11] = EC50 (potency) of calcium mobilization
[12] = Binding affinity (nM), radioligand itself
[13] = read-out: Ki for inhibition of [3H]RTX binding

T1 sequence (O35433 whole entry): as above

COc1cc(CNC(=O)CCCC/C=C/C(C)C)ccc1O [capsaicin]
time to peak value of calcium mobilization response (rat VR1 [1]): ≤ 1 min
Ave Max Response (RFU) (human capsaicin receptor): 7257 RFU and 5529 RFU
Ave Max Response (RFU) [2]: 805 RFU
Ave Max Response (RFU) (HEK 293T cells): 843 RFU
EC50 [3, 9]: 340 nM
EC50 [3, 10]: 270 nM
sensitivity of VRL-1 [4]: insensitive

Oc1cc2c(cc1O)CN(C(=S)NCCc1ccc(Cl)cc1)CCC2 [capsazepine]
Ki (rat VR1 [5]; Binding affinity (nM), competing ligands): 5100 nM
Ki [6]: 8600 nM
Ki (rat VR1 [1]; Ca2+-mobilization, Ki value): 140 nM and 1100 nM
IC50 (rat VR1 [1]; IC50 for inhibition of capsaicin-evoked calcium mobilization): 2400 nM and 330 nM
Ki ([3]; read-out: 45Ca2+-uptake, Ki value): 271 nM

CC1(C)C[C@H]2C=C(C=O)[C@]3(C=O)C[C@]3(C)[C@H]2C1 [isovelleral]
Ki (rat VR1 [7]; Ki for inhibition of [3H]RTX binding): 18000 nM and 20000 nM
Ki [6]: 24000 nM

CCCCCCCC/C=C\CCCCCCCC(=O)NCc1ccc(O)c(OC)c1 [olvanil]
Ki [6]: 300 nM
EC50 (rat VR1 [1]; Ca2+-mobilization (EC50, nM), agonists): 216 nM
EC50 (rat VR1 [1]; [11]): 22 nM
EC50 [3, 9]: 170 nM

C=C(C)[C@]12C[C@@H](C)[C@@]34O[C@](Cc5ccccc5)(O[C@@H]1[C@@H]3C=C(COC(=O)Cc1ccc(O)c(OC)c1)C[C@]1(O)C(=O)C(C)=C[C@@H]41)O2 [resiniferatoxin, Resiniferatoxin]
Bmax (rat VR1 [7]): 250+/−24 fmol/10^6 cells
Hill coefficient, FIG. 1A (rat VR1 [7]): 1.8
Hill number (cooperativity index) (rat VR1 [7]): 2.1 and 2.1+/−0.2
dissociation constant (1st order decay) (rat VR1 [7]): 0.12 ± 0.02 min⁻¹
maximal receptor density, FIG. 1A (rat VR1 [7]): 222 fmol per one million cells
non-specific binding as share of total binding (rat VR1 [7]): approximately 20%
receptor density (rat VR1 [7]): 1.5×10^5 binding sites per cell
specific binding attained, of its peak value (rat VR1 [7]): approximately 90%
Kd (rat VR1 [7]; Half-maximal binding, FIG. 1A): 0.056 nM
Kd (rat VR1 [7]; [3H]RTX binding affinity (half-maximal binding)): 0.084 nM
Hill number (rat VR1 [5]): 1.8 and 1.9+/−0.1
maximal receptor density (rat VR1 [5]): 470+/−30 fmol/10^6 cells
Kd (rat VR1 [5]; [12]): 0.13 nM
Kd (rat VR1 [5]; [3H]RTX binding affinity (Kd)): 0.103 nM
Bmax [6]: 290+/−10 fmol/mg protein
Hill coefficient, FIG. 2 [6]: 1.5
Hill number (cooperativity index) [6]: 1.7 and 1.9+/−2
maximal receptor density, FIG. 2 [6]: 302 fmol per one million cells
Kd [6, 12]: 0.07 nM
Kd ([6]; Half-maximal binding, FIG. 2): 0.06 nM
Kd ([6]; [3H]RTX Kd): 0.07 nM
EC50 (rat VR1 [8]): 4.1 nM
time-course of calcium mobilization response (rat VR1 [1]): slowly developing but persistent calcium currents
EC50 (rat VR1 [1]; [11]): 1.4 nM
EC50 [3, 10]: 1 nM
fold more potent than capsaicin (VR1): approximately 20 fold
fold more potent for binding than for inducing calcium uptake (vanilloid receptor (VR)): approximately 25 fold
Kd (vanilloid receptor (VR); read-out: Kd of binding): 0.04 nM

N.N.N.N.N.N.N.N.N.N.N.N.N.N.[Cl-].[Cl-].[Cl-].[Cl-].[Cl-].[Cl-].[O-2].[O-2].[Ru+3].[Ru+3].[Ru+4] [ruthenium red]
Binding affinity (nM), competing ligands (rat VR1 [5]): no effect
Binding affinity (nM), competing ligands [6]: no effect
IC50 (rat VR1 [1]; read-out: IC50 for prevention of calcium mobilization by capsaicin, n=7): 210 nM

CC(C)=CCC/C(C)=C/CC/C(C)=C/Cc1c(C)c(C=O)c(O)c(O)c1O [scutigeral]
Ki (rat VR1 [7]; [13]): 20000 nM and 18000 nM
Ki [6, 13]: 21000 nM
